The values below come from patent US5434052A, “Complementation assay for drug screening” (Microgenics Corporation, priority 1993, dated 1995).

For assay [1], the target named is T1, bovine Folate Binding Protein (Bos taurus, UniProt P02702).
T1 construct: purchased Biochemical Inc., Englewood, Colo
Nature of the assay: Inhibition of ED14-Folate conjugate with folate binding protein; competition by folic acid sample, β-galactosidase complementation. The arrangement: dose or concentration left out as unconfirmed. The note with it: folate binding protein diluted approximately 1:2500. Here is the method: Binding Protein Reagent consists of bovine Folate Binding Protein (Biochemical Inc., Englewood, Colo.) diluted approximately 1:2500 in 150 mM potassium phosphate, 50 mM sodium borate, 1% BSA (B12-Grade BSA, Sigma, St. Louis, Mo.), 1% Lubrol and 20 mM sodium azide, pH 7.0. ED14-Folate Conjugate/Substrate Reagent contains approximately 6.3 nM ED-Folate, 1.0 mg/ml OCNPG (o-chloro-p-nitrophenol galactopyranoside), 100 mM sodium phosphate, 150 mM potassium phosphate, 10 mM ethylene glycol tetraacetic acid, 2.5 mM dithiothreitol, 20 mM sodium azide, 0.05% Tween 20 with 0.05 mM dithiothreitol, pH 7.0. EA Reagent consists of a recombinant protein resembling the carboxyl-terminal end of β-galactosidase in 100 mM sodium phosphate, 150 mM potassium phosphate, 10 mM ethylene glycol tetraacetic acid, 5 mM magnesium acetate, 20 mM sodium azide, 0.05% Tween 20 with 0.05 mM dithiothreitol pH 7.0. EA concentration is approximately 2.2 μM. The assay procedure involves mixing of 300 μl of folic acid sample with 100 μl of binding protein reagent and incubation for 15 min at room temperature. This becomes the pretreated sample. An instrument (clinical chemistry analyzer) is programmed to deliver 30 μl of pretreated sample with 100 μl of ED-Folate reagent for 2 to 5 min at 37° C. This is followed by the addition of 220 μl of EA reagent to the reaction mixture by the instrument and the enzyme rate is read by absorbance change at […]. The following table indicates a typical assay performance.

Assay [2] has as its target T2, (Homo sapiens, UniProt P05543).
T2 construct: purchased Protus Laboratories, South San Francisco, CA
T2 sequence (P05543 21-415): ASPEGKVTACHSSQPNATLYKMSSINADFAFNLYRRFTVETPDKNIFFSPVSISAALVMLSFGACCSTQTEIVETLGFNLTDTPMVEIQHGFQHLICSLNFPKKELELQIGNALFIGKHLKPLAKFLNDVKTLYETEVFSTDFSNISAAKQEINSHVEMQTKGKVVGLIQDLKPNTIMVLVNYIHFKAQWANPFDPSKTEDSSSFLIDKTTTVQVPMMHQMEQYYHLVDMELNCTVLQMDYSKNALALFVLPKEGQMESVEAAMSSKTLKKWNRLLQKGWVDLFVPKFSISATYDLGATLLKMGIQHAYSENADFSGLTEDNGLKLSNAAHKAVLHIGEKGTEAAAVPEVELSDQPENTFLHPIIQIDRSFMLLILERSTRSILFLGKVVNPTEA
In words: Inhibition of ED4-T4 conjugate by thyroxin binding globulin, β-galactosidase complementation. Conditions: 18 nM ED4-T4; for Observed Enzyme Rate: 420 nM, 37° C. The procedure:
Buffer=20 mM NaPO4 10 mM EGTA, 2 mM MgOAc, 3.6% Glycerol, 5 mM Sucrose, 20 mM NaN3, pH 7.0
Reagent=5U EA/Test or 31.25 U/ml of EA in EA Buffer
Buffer=20 mM NaPO4, 10 mM EGTA, 6.25 mg/ml ONPG, 0.05% Tween/DTT, 20 mM NaN3, pH 7.0
Reagent=18 nM ED4-T4 system concentration or 112.5 nM ED4-T4 in ED reagent buffer
Machine Program Parameters:
The receptor was purified TBG from Protus Laboratories, South San Francisco, CA diluted in PBS.

T1 sequence (P02702 20-241): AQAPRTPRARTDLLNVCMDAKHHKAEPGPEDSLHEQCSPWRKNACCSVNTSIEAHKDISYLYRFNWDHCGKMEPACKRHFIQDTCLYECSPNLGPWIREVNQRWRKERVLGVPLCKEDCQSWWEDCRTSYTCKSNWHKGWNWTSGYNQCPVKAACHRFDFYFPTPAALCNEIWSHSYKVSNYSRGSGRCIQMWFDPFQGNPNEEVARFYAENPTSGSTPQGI

As for `Nc1nc2ncc(CNc3ccc(C(=O)N[C@@H](CCC(=O)O)C(=O)O)cc3)nc2c(=O)[nH]1` [Folate, Folic acid], the figures for the “% Inhibition of ED14-Folate Conjugate” value in assay [1] (folate in sample 20) and in assay [1] (folate in sample 200) were 18.8% and 0.0%, respectively. The entries for the “Observed Enzyme Rate” value in assay [1] (folate in sample 20) and in assay [1] (folate in sample 200) were 290 and 357, respectively.

B1: TBG: purified TBG from Protus Laboratories, diluted in PBS (protein, UniProt P05543 21-415, looked up)
Thyroxine-binding globulin: T2 sequence (P05543 21-415)
Turning to B1, in assay [2] (TBG receptor 18.3 μg/ml), the “% Inhibition” value turned out to be 22% and the “Observed Enzyme Rate” value was determined as 367 mA/min. For the same molecule, in assay [2] (TBG receptor 55.0 μg/ml), the “% Inhibition” value is reported as 68% and the “Observed Enzyme Rate” value turned out to be 154 mA/min.
